The source of these data is patent publication US11028080B2, “Substituted pyrimidines as LRKK2 inhibitors” (Denali Therapeutics Inc., priority 2016, dated 2021).

Structures are written as SMILES.

Chain of LRRK2 G2019S enzyme (Q5S007 whole entry G2019S): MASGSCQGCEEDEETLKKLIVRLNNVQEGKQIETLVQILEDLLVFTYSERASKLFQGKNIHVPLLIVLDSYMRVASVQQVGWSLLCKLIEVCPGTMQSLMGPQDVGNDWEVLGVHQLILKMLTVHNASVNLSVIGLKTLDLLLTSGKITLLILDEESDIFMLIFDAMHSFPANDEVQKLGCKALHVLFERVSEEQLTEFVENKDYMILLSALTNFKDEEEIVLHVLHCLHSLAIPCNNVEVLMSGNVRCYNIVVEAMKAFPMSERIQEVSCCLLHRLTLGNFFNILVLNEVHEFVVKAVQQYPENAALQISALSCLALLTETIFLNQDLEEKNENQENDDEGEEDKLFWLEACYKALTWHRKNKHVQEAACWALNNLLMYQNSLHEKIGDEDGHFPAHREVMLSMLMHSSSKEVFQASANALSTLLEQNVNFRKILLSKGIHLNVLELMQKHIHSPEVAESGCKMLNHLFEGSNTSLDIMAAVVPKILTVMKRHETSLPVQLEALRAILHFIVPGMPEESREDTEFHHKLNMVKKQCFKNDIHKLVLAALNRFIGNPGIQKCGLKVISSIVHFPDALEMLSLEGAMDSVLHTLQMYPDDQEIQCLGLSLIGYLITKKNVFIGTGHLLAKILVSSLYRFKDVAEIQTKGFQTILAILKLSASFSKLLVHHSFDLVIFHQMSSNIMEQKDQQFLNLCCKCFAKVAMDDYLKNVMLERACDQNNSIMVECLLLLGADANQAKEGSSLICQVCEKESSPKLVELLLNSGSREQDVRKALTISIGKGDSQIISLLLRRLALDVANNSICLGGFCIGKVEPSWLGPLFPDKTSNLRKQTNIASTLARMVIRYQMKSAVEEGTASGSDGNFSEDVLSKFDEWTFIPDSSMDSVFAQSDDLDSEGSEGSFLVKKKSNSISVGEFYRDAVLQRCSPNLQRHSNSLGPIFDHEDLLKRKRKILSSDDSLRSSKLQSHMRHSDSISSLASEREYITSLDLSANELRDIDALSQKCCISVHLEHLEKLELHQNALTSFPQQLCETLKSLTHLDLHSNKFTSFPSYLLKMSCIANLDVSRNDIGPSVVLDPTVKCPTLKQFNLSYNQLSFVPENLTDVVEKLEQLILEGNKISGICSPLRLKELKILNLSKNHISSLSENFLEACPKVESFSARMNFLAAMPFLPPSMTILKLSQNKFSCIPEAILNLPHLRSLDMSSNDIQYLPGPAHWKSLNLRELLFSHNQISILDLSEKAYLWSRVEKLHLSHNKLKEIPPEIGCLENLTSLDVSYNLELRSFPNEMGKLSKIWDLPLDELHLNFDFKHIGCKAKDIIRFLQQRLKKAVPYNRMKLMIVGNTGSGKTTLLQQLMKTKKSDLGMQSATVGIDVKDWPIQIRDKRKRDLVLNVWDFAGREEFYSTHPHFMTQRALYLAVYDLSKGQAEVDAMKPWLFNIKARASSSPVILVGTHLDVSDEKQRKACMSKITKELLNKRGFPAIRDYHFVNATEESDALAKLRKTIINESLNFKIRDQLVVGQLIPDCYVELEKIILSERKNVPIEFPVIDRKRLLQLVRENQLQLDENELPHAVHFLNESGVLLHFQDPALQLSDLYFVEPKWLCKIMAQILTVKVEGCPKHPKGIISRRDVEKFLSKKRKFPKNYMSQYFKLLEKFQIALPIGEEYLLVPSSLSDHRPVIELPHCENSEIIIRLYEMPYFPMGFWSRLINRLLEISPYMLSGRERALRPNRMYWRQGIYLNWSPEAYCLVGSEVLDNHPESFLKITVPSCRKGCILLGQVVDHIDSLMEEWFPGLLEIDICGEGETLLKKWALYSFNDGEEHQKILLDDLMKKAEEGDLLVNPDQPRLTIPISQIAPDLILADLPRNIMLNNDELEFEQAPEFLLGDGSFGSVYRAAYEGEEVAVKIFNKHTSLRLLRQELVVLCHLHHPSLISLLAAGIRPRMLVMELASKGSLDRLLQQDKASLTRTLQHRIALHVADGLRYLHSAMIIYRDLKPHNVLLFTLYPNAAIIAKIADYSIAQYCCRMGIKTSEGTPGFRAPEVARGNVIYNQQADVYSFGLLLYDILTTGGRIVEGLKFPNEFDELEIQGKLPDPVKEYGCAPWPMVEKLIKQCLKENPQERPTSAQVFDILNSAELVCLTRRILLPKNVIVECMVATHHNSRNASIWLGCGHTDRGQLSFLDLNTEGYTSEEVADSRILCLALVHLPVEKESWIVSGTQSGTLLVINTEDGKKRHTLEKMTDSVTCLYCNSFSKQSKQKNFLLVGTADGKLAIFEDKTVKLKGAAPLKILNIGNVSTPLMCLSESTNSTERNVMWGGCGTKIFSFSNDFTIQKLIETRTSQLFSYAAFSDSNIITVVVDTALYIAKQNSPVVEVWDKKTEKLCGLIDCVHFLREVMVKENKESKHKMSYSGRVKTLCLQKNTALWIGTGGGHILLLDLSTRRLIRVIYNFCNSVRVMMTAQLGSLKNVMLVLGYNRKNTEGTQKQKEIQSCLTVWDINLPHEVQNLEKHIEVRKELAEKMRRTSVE

This experiment deals with LRRK2 G2019S enzyme (Homo sapiens (Human), UniProt Q5S007, G2019S). The experiment can be described thus: LRRK2 G2019S biochemical TR-FRET assay (LRRKtide substrate). Particulars: 5 nM LRRK2, 134 μM ATP, 60 minute reaction time, 23° C. As for the experimental part:
Materials: • LRRK2 G2019S enzyme • Substrate (LRRKtide) • ATP • TR-FRET dilution buffer • pLRRKtide antibody • 384-well assay plate • DMSO • Enzyme reaction conditions • 50 mM Tris pH 7.5, 10 mM MgCl2, 1 mM EGTA, 0.01% Brij-35, 2 mM DTT • 5 nM LRRK2 • 134 μM ATP • 60 minute reaction time • 23° C. reaction temperature • 10 μL total reaction volume
Detection reaction conditions • 1×TR-FRET dilution buffer • 10 mM EDTA • 2 nM antibody • 23° C. reaction temperature • 10 μL total reaction volume
Compounds were prepared by initially diluting to 1 mM with DMSO. 35 μL of reference compound solution, 35 μL of test compound solution, and 35 μL HPE were successively added to the source plate (384-well assay plate, Labcyte). The plates were centrifuged at 2500 rpm for 1 minute and sealed in foil. POD was used to perform a 3.162 fold serial dilution and 100 nL of reference compound solution, test compound solution, HPE and ZPE were transferred to assay plates. The assay plate was centrifuged at 2500 rpm for 1 minute, and sealed with foil.
To perform the enzyme reaction, 5 μL of LRRKtide substrate and kinase mixture in assay buffer was added to all wells of the assay plate. The plate was centrifuged to concentrate the mixture at the bottom of the wells. The assay plate was incubated at 23° C. for 20 minutes. Following incubation, 5 μL of 2×ATP in assay buffer was added to each well, and plates were centrifuged to concentrate the mixture at the bottom of the wells. The plate was incubated at 23° C. for 60 minutes.
To perform the detection of the reaction, EDTA completely mixed in TR-FRET dilution buffer was added to antibody reagent. 10 μL of detection reagent was added to all wells of each well of the assay plate and the plate was centrifuged to concentrate the mixture at the bottom of the wells. The plate was then incubated at 23° C. for 60 minutes. Plates were read on Perkin Elmer Envision 2104 instrument in TR-FRET mode using a 340 nm excitation filter, 520 nm fluorescence emission filter, and 490 or 495 nm terbium emission filter.
In the table below, activity is provided as follows: In the table below, activity is provided as follows: +++=IC50 less than 30 nM; ++=IC50 between 30 nM and 60 nM; +=IC50 greater than 60 nM.
(In TR-FRET formats the signal depends on donor and acceptor labels being close together.)
What is called IC50 is the midpoint of a concentration-inhibition curve. The low end stands for greater potency in that assay, the high end for weaker potency in that assay. For `[2H]C([2H])([2H])C1(c2nc(Cl)c(Nc3ncc(C(F)(F)F)c(NC)n3)s2)CCNC1=O` (single isomer, unassigned) [Compound 42], the IC50 is < 30 nM.

As to `[2H]C([2H])([2H])C1(c2nc(Cl)c(Nc3ncc(C(F)(F)F)c(NC)n3)s2)CCNC1=O` (single isomer, unassigned) [Compound 43], the IC50 is < 30 nM.

For the compound `[2H]C([2H])([2H])N1CCC(c2nc(Cl)c(Nc3ncc(C(F)(F)F)c(NC)n3)s2)(C([2H])([2H])[2H])C1=O` (single isomer, unassigned) [Compound 44], the 50% inhibitory concentration (IC50) was < 30 nM.

In the case of `[2H]C([2H])([2H])N1CCC(c2nc(Cl)c(Nc3ncc(C(F)(F)F)c(NC)n3)s2)(C([2H])([2H])[2H])C1=O` (single isomer, unassigned) [Compound 45], the IC50 was < 30 nM.

Take `[2H]C([2H])([2H])N1CCC(c2nc(Cl)c(Nc3ncc(C(F)(F)F)c(NCC)n3)s2)(C([2H])([2H])[2H])C1=O` (single isomer, unassigned) [Compound 46]: the concentration for half-maximal inhibition (IC50) is < 30 nM.

`[2H]C([2H])([2H])N1CCC(c2nc(Cl)c(Nc3ncc(C(F)(F)F)c(NCC)n3)s2)(C([2H])([2H])[2H])C1=O` (single isomer, unassigned) [Compound 47]: the IC50 is < 30 nM.

For the compound `[2H]C([2H])([2H])C1(c2nc(Cl)c(Nc3ncc(Br)c(OC)n3)s2)CCNC1=O` (single isomer, unassigned) [Compound 48], the 50% inhibitory concentration (IC50) is < 30 nM.

Take `[2H]C([2H])([2H])C1(c2nc(Cl)c(Nc3ncc(Br)c(OC)n3)s2)CCNC1=O` (single isomer, unassigned) [Compound 49]: the half-maximal inhibitory concentration (IC50) is < 30 nM.

For the compound `[2H]C([2H])([2H])C1(c2nc(C3CC3)c(Nc3ncc(C(F)(F)F)c(NCC)n3)s2)CCNC1=O` (single isomer, unassigned) [Compound 51], the IC50 was < 30 nM.

Turning to `[2H]C([2H])([2H])C1(c2nc(C3CC3)c(Nc3ncc(C(F)(F)F)c(NCC)n3)s2)CCNC1=O` (single isomer, unassigned) [Compound 52], the IC50 is < 30 nM.

For `[2H]C([2H])([2H])C1(c2nc(C3CC3)c(Nc3ncc(Br)c(OC)n3)s2)CCNC1=O` (single isomer, unassigned) [Compound 53], the IC50 is < 30 nM.

As for `[2H]C([2H])([2H])C1(c2nc(C3CC3)c(Nc3ncc(Br)c(OC)n3)s2)CCNC1=O` (single isomer, unassigned) [Compound 54], the IC50 was < 30 nM.

For `[2H]C([2H])([2H])C1(c2nc(C3CC3)c(Nc3ncc(C(F)(F)F)c(NC)n3)s2)CCNC1=O` (single isomer, unassigned) [Compound 59], the IC50 was < 30 nM.

For the compound `[2H]C([2H])([2H])C1(c2nc(C3CC3)c(Nc3ncc(C(F)(F)F)c(NC)n3)s2)CCNC1=O` (single isomer, unassigned) [Compound 60], the IC50 is < 30 nM.

Turning to `Cc1nc(C(C)(C)c2nc[nH]n2)sc1Nc1ncc(C(F)(F)F)c(C2CC2)n1` [Compound 1], the half-inhibitory concentration (IC50) is < 30 nM.

On to `CNc1nc(Nc2sc(C3(C#N)CC3)nc2C)ncc1C(F)(F)F` [Compound 2], for which the IC50 was < 30 nM.

In the case of `Cc1nc(C2(c3nc[nH]n3)CC2)sc1Nc1ncc(C(F)(F)F)c(C2CC2)n1` [Compound 3], the IC50 is < 30 nM.

As to `CCNc1nc(Nc2sc(C(=O)N3CCC(F)(F)C3)nc2C)ncc1C(F)(F)F` [Compound 10], the IC50 is < 30 nM.

Take `CNc1nc(Nc2cn(C)c(C#N)c2C)ncc1C(F)(F)F` [Compound 14, 1,3-dimethyl-4-((4-(methylamino)-5-(trifluoromethyl)pyrimidin-2-yl)amino)-1H-pyrrole-2-carbonitrile]: the half-inhibitory concentration (IC50) was < 30 nM.

As for `CCNc1nc(Nc2cn(Cc3ccn(C)n3)c(C#N)c2C)ncc1C(F)(F)F` [Compound 15, 4-((4-(ethylamino)-5-(trifluoromethyl)pyrimidin-2-yl)amino)-3-methyl-1-((1-methyl-1H-pyrazol-3-yl)methyl)-1H-pyrrole-2-carbonitrile], the half-maximal inhibitory concentration (IC50) was < 30 nM.

On to `CCNc1nc(Nc2cn(S(C)(=O)=O)c(C#N)c2C)ncc1C(F)(F)F` [Compound 16, 4-((4-(ethylamino)-5-(trifluoromethyl)pyrimidin-2-yl)amino)-3-methyl-1-(methylsulfonyl)-1H-pyrrole-2-carbonitrile], for which the 50% inhibitory concentration (IC50) was < 30 nM.

As for `CNc1nc(Nc2sc(C(C)(C)C#N)nc2C)ncc1C(F)(F)F` [Compound 17, 2-methyl-2-(4-methyl-5-((4-(methylamino)-5-(trifluoromethyl)pyrimidin-2-yl)amino)thiazol-2-yl)propanenitrile], the IC50 is < 30 nM.

In the case of `CNc1nc(Nc2sc(C(C)(C)C(N)=O)nc2C)ncc1C(F)(F)F` [Compound 22], the 50% inhibitory concentration (IC50) was < 30 nM.

As for `[2H]C([2H])([2H])N1CCC(c2nc(C)c(Nc3ncc(C(F)(F)F)c(NC)n3)s2)(C([2H])([2H])[2H])C1=O` (stereo not shown) [Compound 23], the IC50 is < 30 nM.

As for `CCNc1nc(Nc2sc(C(=O)N3CCOCC3)nc2C)ncc1C(F)(F)F` [Compound 24], the IC50 is < 30 nM.

Regarding `CNc1nc(Nc2sc(C(C)(C)C(N)=O)nc2Cl)ncc1C(F)(F)F` [Compound 25], the half-inhibitory concentration (IC50) is < 30 nM.

With `CCNc1nc(Nc2sc(C(C)(C)C(N)=O)nc2C)ncc1C(F)(F)F` [Compound 26], the IC50 was < 30 nM.

As for `CCNc1nc(Nc2sc(C#N)nc2C)ncc1C(F)(F)F` [Compound 27], the concentration for half-maximal inhibition (IC50) is < 30 nM.

As to `CCNc1nc(Nc2sc(C(=O)NC)nc2C)ncc1C(F)(F)F` [Compound 28], the concentration for half-maximal inhibition (IC50) is < 30 nM.

For `Cc1nc(C(C)(C)C(N)=O)sc1Nc1ncc(C(F)(F)F)c(NC2CC2)n1` [Compound 29], the half-maximal inhibitory concentration (IC50) is < 30 nM.

Take `Cc1nc(C(C)(C)C(N)=O)sc1Nc1ncc(C(F)(F)F)c(C2CC2)n1` [Compound 30]: the IC50 is < 30 nM.

Turning to `Cc1nc(C(C)(C)c2nnn(C)n2)sc1Nc1ncc(C(F)(F)F)c(C2CC2)n1` [Compound 31], the 50% inhibitory concentration (IC50) is < 30 nM.

Regarding `CCNc1nc(Nc2sc(C3(C#N)CC3)nc2C)ncc1C(F)(F)F` [Compound 32], the IC50 is < 30 nM.

As for `CCNc1nc(Nc2sc(C(=O)N3CC4CCC(C3)O4)nc2C)ncc1C(F)(F)F` [Compound 33], the IC50 was < 30 nM.

For the compound `CC(C)(C(N)=O)c1nc(Cl)c(Nc2ncc(C(F)(F)F)c(NC3CC3)n2)s1` [Compound 34], the half-maximal inhibitory concentration (IC50) is < 30 nM.

Take `CNc1nc(Nc2sc(C(C)(C)C#N)nc2Cl)ncc1C(F)(F)F` [Compound 36]: the half-inhibitory concentration (IC50) is < 30 nM.

For `CCNc1nc(Nc2sc(C(C)(C)C(N)=O)nc2Cl)ncc1C(F)(F)F` [Compound 37], the 50% inhibitory concentration (IC50) was < 30 nM.

With `CCNc1nc(Nc2sc(C(C)(C)C(N)=O)nc2Cl)ncc1Br` [Compound 38], the IC50 is < 30 nM.

As to `COc1nc(Nc2sc(C(C)(C)C(N)=O)nc2Cl)ncc1Br` [Compound 39], the IC50 is < 30 nM.

Turning to `CC(C)(C(N)=O)c1nc(Cl)c(Nc2ncc(C(F)(F)F)c(NCC(F)F)n2)s1` [Compound 40], the half-maximal inhibitory concentration (IC50) is < 30 nM.

Turning to `CC(C)(C(N)=O)c1nc(Cl)c(Nc2ncc(Br)c(NC3CC3)n2)s1` [Compound 41], the IC50 is < 30 nM.

`CCNc1nc(Nc2sc(C(C)(C)C#N)nc2Cl)ncc1C(F)(F)F` [Compound 50]: the IC50 is < 30 nM.

For `CNc1nc(Nc2sc(C(C)(C)C#N)nc2C2CC2)ncc1C(F)(F)F` [Compound 61], the IC50 is < 30 nM.
